What was measured:
FAK recombinant protein = FAK recombinant protein (Homo sapiens, UniProt Q05397); experiment: Inhibitory activity against FAK enzyme; format: biochemical; settings: TK substrate, ATP
Method: The compound serially diluted with DMSO and a FAK recombinant protein were mixed, and the mixture was left to stand at room temperature for 10 min. A biotin-labeled TK substrate (TK) and ATP were then added. […] After the mixture was incubated at room temperature for 1 h, the fluorescence intensity at 615 nm and 665 nm was measured. The ratio of the fluorescence intensity at 665 nm and 615 nm was calculated. The inhibition percentages and IC50 of the compounds were calculated compared to the DMSO control group.

PC3 cells [1] = experiment: PC3 cell proliferation, 2D activity detection; format: cell-based, human; settings: PC3, 2D, 72 h, class symbol, read-out: 2D IC50 against PC3 cells
Method: 2D activity detection: 1200 PC3 cells were seeded in a 96-well plate. After overnight adherence culture, the compound serially diluted was added. 72 h after addition, Cell Titer-Lumi (Beyotime C0068XL) was added to measure the ATP content in the cells. The growth of the cells was evaluated, and IC50 of the compounds against cell growth was calculated.

PC3 cells [2] = experiment: PC3 cell proliferation, 3D activity detection; format: cell-based, human; settings: PC3, 3D culture, 14 days, class symbol, read-out: 3D IC50 against PC3 cells
Method: 3D activity detection: PC3 cells were seeded in a 96-well plate at 1200 cells/well, and 3D culture was performed. 14 days after the compound serially diluted was added, the growth of the cells was determined. The inhibition percentage and IC50 of the compound were calculated compared to the DMSO control group.

Sequence of FAK recombinant protein (Q05397 whole entry, species assumed): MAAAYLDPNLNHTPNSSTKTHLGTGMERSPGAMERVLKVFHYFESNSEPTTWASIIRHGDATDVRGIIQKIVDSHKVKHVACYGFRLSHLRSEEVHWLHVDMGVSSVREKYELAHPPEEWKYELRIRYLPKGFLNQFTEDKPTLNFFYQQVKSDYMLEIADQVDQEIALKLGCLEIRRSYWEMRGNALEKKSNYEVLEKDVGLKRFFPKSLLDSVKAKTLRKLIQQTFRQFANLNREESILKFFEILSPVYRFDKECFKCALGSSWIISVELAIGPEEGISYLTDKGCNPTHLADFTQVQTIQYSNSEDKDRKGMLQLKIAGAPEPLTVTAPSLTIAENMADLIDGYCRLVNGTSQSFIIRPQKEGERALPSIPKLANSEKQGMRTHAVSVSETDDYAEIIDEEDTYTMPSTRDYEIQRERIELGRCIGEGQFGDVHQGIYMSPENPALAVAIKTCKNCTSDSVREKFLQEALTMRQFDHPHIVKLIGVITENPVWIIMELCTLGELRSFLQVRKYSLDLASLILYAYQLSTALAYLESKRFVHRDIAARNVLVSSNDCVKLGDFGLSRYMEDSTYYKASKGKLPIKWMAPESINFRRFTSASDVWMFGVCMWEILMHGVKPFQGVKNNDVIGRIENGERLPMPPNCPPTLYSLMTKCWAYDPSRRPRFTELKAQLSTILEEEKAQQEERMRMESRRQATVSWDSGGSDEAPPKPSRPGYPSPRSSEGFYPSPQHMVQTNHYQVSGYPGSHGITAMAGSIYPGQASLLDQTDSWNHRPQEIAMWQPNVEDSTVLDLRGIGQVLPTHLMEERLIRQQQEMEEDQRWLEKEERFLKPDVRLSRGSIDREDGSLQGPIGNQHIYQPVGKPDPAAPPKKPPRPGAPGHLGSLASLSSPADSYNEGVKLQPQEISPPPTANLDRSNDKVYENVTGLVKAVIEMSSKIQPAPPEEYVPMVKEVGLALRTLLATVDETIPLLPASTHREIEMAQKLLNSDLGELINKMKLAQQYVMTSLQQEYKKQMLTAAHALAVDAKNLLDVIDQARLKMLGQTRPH

## COc1cc(N2CCC23CCN(C)CC3)ccc1Nc1ncc(C(F)(F)F)c(Oc2cccc3c2C(=O)N(C)C3)n1 [Compound 97]
FAK recombinant protein
  IC50: < 10 nM
PC3 cells [1]; Homo sapiens, PC-3
  IC50: > 2000 nM
PC3 cells [2]; Homo sapiens, PC-3, 336 h
  IC50: < 5 nM

## COc1cc(C(=O)NC2CC3(CCN(C)CC3)C2)ccc1Nc1ncc(C(F)(F)F)c(Oc2cccc3c2C(=O)N(C)C3)n1 [Compound 45]
FAK recombinant protein
  IC50: < 10 nM
PC3 cells [1]; Homo sapiens, PC-3
  IC50: > 2000 nM
PC3 cells [2]; Homo sapiens, PC-3, 336 h
  IC50: < 5 nM

## COc1cc(C(=O)NC2CC3(CCN(C)CC3)C2)ccc1Nc1ncc(C(F)(F)F)c(Cc2cccc3c2C(=O)N(C)C3)n1 [Compound 57]
FAK recombinant protein
  IC50: < 10 nM
PC3 cells [1]; Homo sapiens, PC-3
  IC50: > 2000 nM
PC3 cells [2]; Homo sapiens, PC-3, 336 h
  IC50: < 5 nM

## COc1cc(C(=O)NC2CCC3(CC2)CCN(C)CC3)c(F)cc1Nc1ncc(C(F)(F)F)c(Oc2ccccc2N(C)S(C)(=O)=O)n1 [Compound 16]
FAK recombinant protein
  IC50: 10 to 50 nM
PC3 cells [1]; Homo sapiens, PC-3
  IC50: > 2000 nM
PC3 cells [2]; Homo sapiens, PC-3, 336 h
  IC50: 5 to 50 nM

## COc1cc(C2=NOC3(CCN(C)CC3)C2)ccc1Nc1ncc(C(F)(F)F)c(Oc2cccc3c2C(=O)N(C)C3)n1 [Compound 68]
FAK recombinant protein
  IC50: 10 to 50 nM
PC3 cells [1]; Homo sapiens, PC-3
  IC50: > 2000 nM
PC3 cells [2]; Homo sapiens, PC-3, 336 h
  IC50: 5 to 50 nM

## COc1cc(C(=O)NC2CCC3(CC2)CCN(C)C3)c(F)cc1Nc1ncc(C(F)(F)F)c(Oc2cccc3c2C(=O)N(C)C3)n1 (stereo not drawn) [Compound 25]
FAK recombinant protein
  IC50: < 10 nM
PC3 cells [1]; Homo sapiens, PC-3
  IC50: > 2000 nM
PC3 cells [2]; Homo sapiens, PC-3, 336 h
  IC50: < 5 nM

## COc1cc(N2CC3(CCN(C)CC3)C2)c(F)cc1Nc1ncc(Cl)c(Oc2cccc3c2C(=O)N(C)C3)n1 [Compound 110, 7-((5-chloro-2-((5-fluoro-2-methoxy-4-(7-methyl-2,7-diazaspiro[3.5]non-2-yl)phenyl)amino)pyrimidin-4-yl)oxy)-2-methylisoindolin-1-one]
FAK recombinant protein
  IC50: < 10 nM
PC3 cells [1]; Homo sapiens, PC-3
  IC50: > 2000 nM
PC3 cells [2]; Homo sapiens, PC-3, 336 h
  IC50: < 5 nM

## COc1cc(C(=O)NC2CCC3(CC2)CCN(C)C3)c(F)cc1Nc1ncc(C(F)(F)F)c(Cc2cccc3c2C(=O)N(C)C3)n1 (stereo not drawn) [Compound 53]
FAK recombinant protein
  IC50: < 10 nM
PC3 cells [1]; Homo sapiens, PC-3
  IC50: > 2000 nM
PC3 cells [2]; Homo sapiens, PC-3, 336 h
  IC50: 5 to 50 nM

## CCN1CCC2(CC1)CN(c1ccc(Nc3ncc(C(F)(F)F)c(Oc4cccc5c4C(=O)N(C)C5)n3)c(OC)c1)C2 [Compound 103]
FAK recombinant protein
  IC50: < 10 nM
PC3 cells [1]; Homo sapiens, PC-3
  IC50: > 2000 nM
PC3 cells [2]; Homo sapiens, PC-3, 336 h
  IC50: < 5 nM

## COc1cc(C(=O)NC2CC3(CCN(C)CC3)C2)c(F)cc1Nc1ncc(C(F)(F)F)c(Cc2cccc3c2C(=O)N(C)C3)n1 [Compound 49, 2-fluoro-5-methoxy-4-((4-((2-methyl-3-oxoisoindolin-4-yl)methyl)-5-(trifluoromethyl)pyrimidin-2-yl)amino)-N-(7-methyl-7-azaspiro[3.5]nonan-2-yl)benzamide]
FAK recombinant protein
  IC50: < 10 nM
PC3 cells [1]; Homo sapiens, PC-3
  IC50: > 2000 nM
PC3 cells [2]; Homo sapiens, PC-3, 336 h
  IC50: < 5 nM

## COc1cc(N2CCC3(CCN(C)CC3)C2)ccc1Nc1ncc(C(F)(F)F)c(Oc2cccc3c2C(=O)N(C)C3)n1 [Compound 96]
FAK recombinant protein
  IC50: < 10 nM
PC3 cells [1]; Homo sapiens, PC-3
  IC50: > 2000 nM
PC3 cells [2]; Homo sapiens, PC-3, 336 h
  IC50: < 5 nM

## COc1cc(C(=O)NC2CC3(CCN(C)CC3)CO2)c(F)cc1Nc1ncc(C(F)(F)F)c(Oc2ccccc2N(C)S(C)(=O)=O)n1 (stereo not drawn) [Compound 12]
FAK recombinant protein
  IC50: < 10 nM
PC3 cells [1]; Homo sapiens, PC-3
  IC50: > 2000 nM
PC3 cells [2]; Homo sapiens, PC-3, 336 h
  IC50: < 5 nM

## COc1cc(C(=O)NC2CC3(CCN(C)C3)CO2)c(F)cc1Nc1ncc(C(F)(F)F)c(Oc2ccccc2N(C)S(C)(=O)=O)n1 (stereo not drawn) [Compound 14]
FAK recombinant protein
  IC50: < 10 nM
PC3 cells [1]; Homo sapiens, PC-3
  IC50: > 2000 nM
PC3 cells [2]; Homo sapiens, PC-3, 336 h
  IC50: < 5 nM

## COc1cc(C(=O)NC2CCC3(CC2)CCN3C)c(F)cc1Nc1ncc(C(F)(F)F)c(Oc2ccccc2N(C)S(C)(=O)=O)n1 (stereo not drawn) [Compound 18]
FAK recombinant protein
  IC50: < 10 nM
PC3 cells [1]; Homo sapiens, PC-3
  IC50: > 2000 nM
PC3 cells [2]; Homo sapiens, PC-3, 336 h
  IC50: 5 to 50 nM

## COc1cc(C(=O)NC2CCN3CCN=C3C2)c(F)cc1Nc1ncc(C(F)(F)F)c(Oc2cccc3c2C(=O)N(C)C3)n1 (stereo not drawn) [Compound 31]
FAK recombinant protein
  IC50: < 10 nM
PC3 cells [1]; Homo sapiens, PC-3
  IC50: > 2000 nM
PC3 cells [2]; Homo sapiens, PC-3, 336 h
  IC50: 5 to 50 nM

## COc1cc(C(=O)NC2CCN3CCOC3C2)c(F)cc1Nc1ncc(C(F)(F)F)c(Oc2cccc3c2C(=O)N(C)C3)n1 (stereo not drawn) [Compound 30]
FAK recombinant protein
  IC50: < 10 nM
PC3 cells [1]; Homo sapiens, PC-3
  IC50: > 2000 nM
PC3 cells [2]; Homo sapiens, PC-3, 336 h
  IC50: 5 to 50 nM

## COc1cc(C(=O)NC2CC3(CCN(C)CC3)C2)c(F)cc1Nc1ncc(C(F)(F)F)c(Oc2cccc3c2C(=O)N(OC)C3)n1 [Compound 79]
FAK recombinant protein
  IC50: < 10 nM
PC3 cells [1]; Homo sapiens, PC-3
  IC50: > 2000 nM
PC3 cells [2]; Homo sapiens, PC-3, 336 h
  IC50: < 5 nM

## COc1cc(C(=O)N2CCC3(CCN(C)C3)C2)c(F)cc1Nc1ncc(C(F)(F)F)c(Oc2cccc3c2C(=O)N(C)C3)n1 (stereo not drawn) [Compound 37]
FAK recombinant protein
  IC50: < 10 nM
PC3 cells [1]
  IC50: > 2000 nM
PC3 cells [2]
  IC50: 5 to 50 nM

## COc1cc(C(=O)NC2CCC3(CC2)CN(C)C3)c(F)cc1Nc1ncc(C(F)(F)F)c(Cc2cccc3c2C(=O)N(C)C3)n1 [Compound 50]
FAK recombinant protein
  IC50: < 10 nM
PC3 cells [1]; Homo sapiens, PC-3
  IC50: > 2000 nM
PC3 cells [2]; Homo sapiens, PC-3, 336 h
  IC50: 5 to 50 nM

## COc1cc(C(=O)NC2CCC3(CC2)CCN3C)c(F)cc1Nc1ncc(C(F)(F)F)c(Oc2cccc3c2C(=O)N(C)C3)n1 (stereo not drawn) [Compound 22]
FAK recombinant protein
  IC50: < 10 nM
PC3 cells [1]; Homo sapiens, PC-3
  IC50: > 2000 nM
PC3 cells [2]; Homo sapiens, PC-3, 336 h
  IC50: < 5 nM

## COc1cc(C(=O)NC2CCC3(CC2)CCN(C)CC3)c(F)cc1Nc1ncc(C(F)(F)F)c(Oc2cccc3c2C(=O)N(C)C3)n1 [Compound 26]
FAK recombinant protein
  IC50: < 10 nM
PC3 cells [1]; Homo sapiens, PC-3
  IC50: > 2000 nM
PC3 cells [2]; Homo sapiens, PC-3, 336 h
  IC50: 5 to 50 nM

## COc1cc(C(=O)NC2CC3(CCN(C)CC3)C2)ccc1Nc1ncc(C(F)(F)F)c(Oc2cccc3c2C(=O)N(OC)C3)n1 [Compound 81]
FAK recombinant protein
  IC50: < 10 nM
PC3 cells [1]; Homo sapiens, PC-3
  IC50: > 2000 nM
PC3 cells [2]; Homo sapiens, PC-3, 336 h
  IC50: < 5 nM

## COc1cc(C(=O)NC2CC3(CCN(C)CC3)C2)ccc1Nc1ncc(C(F)(F)F)c(Oc2cccc3c2C(=O)CC3)n1 [Compound 83]
FAK recombinant protein
  IC50: < 10 nM
PC3 cells [1]; Homo sapiens, PC-3
  IC50: > 2000 nM
PC3 cells [2]; Homo sapiens, PC-3, 336 h
  IC50: 5 to 50 nM

## COc1cc(C(=O)N2CCC3(CCN(C)C3)C2)c(F)cc1Nc1ncc(C(F)(F)F)c(Oc2cccc3c2C(=O)N(C)C3)n1 (stereo not drawn) [Compound 36]
FAK recombinant protein
  IC50: < 10 nM
PC3 cells [1]; Homo sapiens, PC-3
  IC50: > 2000 nM
PC3 cells [2]; Homo sapiens, PC-3, 336 h
  IC50: 5 to 50 nM

## [2H]C([2H])([2H])N1CC2(CCC(NC(=O)c3cc(OC)c(Nc4ncc(C(F)(F)F)c(Oc5cccc6c5C(=O)N(C)C6)n4)cc3F)CC2)C1 [Compound 48]
FAK recombinant protein
  IC50: < 10 nM
PC3 cells [1]; Homo sapiens, PC-3
  IC50: > 2000 nM
PC3 cells [2]; Homo sapiens, PC-3, 336 h
  IC50: 5 to 50 nM

## COc1cc(C(=O)NC2CC3(CCN(C)CC3)C2)c(Cl)cc1Nc1ncc(C(F)(F)F)c(Oc2cccc3c2C(=O)N(C)C3)n1 [Compound 43]
FAK recombinant protein
  IC50: < 10 nM
PC3 cells [1]; Homo sapiens, PC-3
  IC50: > 2000 nM
PC3 cells [2]; Homo sapiens, PC-3, 336 h
  IC50: < 5 nM

## COc1cc(C(=O)NC2CC3(CCN(C)CC3)C2)ccc1Nc1ncc(C(F)(F)F)c(Cc2cccc3c2C(=O)N(C)C3C)n1 (stereo not drawn) [Compound 75]
FAK recombinant protein
  IC50: < 10 nM
PC3 cells [1]; Homo sapiens, PC-3
  IC50: > 2000 nM
PC3 cells [2]; Homo sapiens, PC-3, 336 h
  IC50: 5 to 50 nM

## COc1cc(C(=O)NC2CCC3(CCN(C)CC3)C2)c(F)cc1Nc1ncc(C(F)(F)F)c(Oc2ccccc2N(C)S(C)(=O)=O)n1 (stereo not drawn) [Compound 11]
FAK recombinant protein
  IC50: < 10 nM
PC3 cells [1]; Homo sapiens, PC-3
  IC50: > 2000 nM
PC3 cells [2]; Homo sapiens, PC-3, 336 h
  IC50: 5 to 50 nM

## COc1cc(N2CC3(CCN(C4CC4)CC3)C2)ccc1Nc1ncc(C(F)(F)F)c(Oc2cccc3c2C(=O)N(C)C3)n1 [Compound 104]
FAK recombinant protein
  IC50: < 10 nM
PC3 cells [1]; Homo sapiens, PC-3
  IC50: > 2000 nM
PC3 cells [2]; Homo sapiens, PC-3, 336 h
  IC50: < 5 nM

## COc1cc(C(=O)NC2CCC3(CCN(C)CC3)C2)c(F)cc1Nc1ncc(C(F)(F)F)c(Oc2cccc3c2C(=O)N(C)C3)n1 (stereo not drawn) [Compound 24]
FAK recombinant protein
  IC50: < 10 nM
PC3 cells [1]; Homo sapiens, PC-3
  IC50: > 2000 nM
PC3 cells [2]; Homo sapiens, PC-3, 336 h
  IC50: 5 to 50 nM

## COc1cc(N2CC3(CCC2=O)CCN(C)CC3)c(F)cc1Nc1ncc(C(F)(F)F)c(Oc2cccc3c2C(=O)N(C)C3)n1 [Compound 65]
FAK recombinant protein
  IC50: > 50 nM
PC3 cells [1]; Homo sapiens, PC-3
  IC50: > 2000 nM
PC3 cells [2]; Homo sapiens, PC-3, 336 h
  IC50: > 50 nM

## COc1cc(N2CCC3(CC2)CN(C)C3)ccc1Nc1ncc(Cl)c(Oc2cccc3c2C(=O)N(C)C3)n1 [Compound 116]
FAK recombinant protein
  IC50: < 10 nM
PC3 cells [1]; Homo sapiens, PC-3
  IC50: > 2000 nM
PC3 cells [2]; Homo sapiens, PC-3, 336 h
  IC50: < 5 nM

— patent US20260159499A1, “COMPOUND AS FAK INHIBITOR AND USE THEREOF” (WIGEN BIOMEDICINE TECHNOLOGY (SHANGHAI) CO., LTD., priority 2021, published 2026)
